Patent publication US20160264616A1, “THERAPEUTIC COMPOUNDS AND METHODS” (priority 2015, published 2016)
Entries after “also recorded” stand apart in the source; their conditions may differ.

System: RGS17FL:Gαo interaction in HEK293T cells
Experiment: RGS localization assay, GFP-RGS17FL co-transfected with human Gαo in HEK293T cells
Assay type: cell-based
Details: 100 μM, 0-10 min
Description: HEK293T cells co-transfected with GFP-RGS17FL and human Gαo were treated with UI-5, UI-1590 and […] to determine if the compounds could disrupt the RGS17:Gαo interaction that could drive RGS17 to the membrane. […] To test this hypothesis, we constructed a GFP-RGS17 fusion protein with an N-terminal truncation, removing the cysteine-rich motif. […] As a negative control, we tested a known RGS4 inhibitor (CCG-50014) in this assay against RGS17ΔN (21). […] Finally, to ensure the localization was not due to the GFP tag, pAcGFP vector was co-transfected into HEK293T cells with hGαo. […] Cross-sectional fluorescence intensity analysis was used to quantify the intensity of signal at a cross section of the cell. Average signal at the membrane and in the cytoplasm were calculated and change in signal intensity was assessed between time zero and time final. […] Additionally, the control condition of CCG-50014 was subject to the same analyses as the lead compound.
Twenty four (24) hours prior to plating, assay plates were coated with 30 μl poly-D-lysine per well. Human Embryonic Kidney 293T cells (HEK293T) were plated in to 96 well tissue culture treated glass bottom view plates (Perkin Elmer, Part No. 6005430) at a density of 25K cells per well. […] Images were analyzed using NIH Image J software and Graphpad Prism 6. […]

With `C[n+]1cc2c3c(ccc2c2ccc4cc5c(cc4c21)OCO5)OCO3` [UI-5] the “delocalization of full length RGS17FL” value was “remained at the membrane; also recorded: does not diffuse back in to the cytoplasm”.
